Data as given in ChEMBL document CHEMBL6121063, “Identification of a Potent and Selective CDK9 Degrader as a Targeted Therapeutic Option for the Treatment of Small-Cell Lung Cancer” (J Med Chem, 2025).
Active and inactive are the calls of the source. No cut-off for these calls is given here.

Columns and labels:
[1] = target: T1, Protein cereblon/Cyclin-dependent kinase 9 (Homo sapiens, UniProt P50750+Q96SW2); assay: PROTAC activity at CRBN/CDK9 in human NCI-H446 cells assessed as induction of CDK9 degradation at 10 nM by Western blot analysis relative to control; type: cell-based
T1 sequence (P50750 whole entry, looked up): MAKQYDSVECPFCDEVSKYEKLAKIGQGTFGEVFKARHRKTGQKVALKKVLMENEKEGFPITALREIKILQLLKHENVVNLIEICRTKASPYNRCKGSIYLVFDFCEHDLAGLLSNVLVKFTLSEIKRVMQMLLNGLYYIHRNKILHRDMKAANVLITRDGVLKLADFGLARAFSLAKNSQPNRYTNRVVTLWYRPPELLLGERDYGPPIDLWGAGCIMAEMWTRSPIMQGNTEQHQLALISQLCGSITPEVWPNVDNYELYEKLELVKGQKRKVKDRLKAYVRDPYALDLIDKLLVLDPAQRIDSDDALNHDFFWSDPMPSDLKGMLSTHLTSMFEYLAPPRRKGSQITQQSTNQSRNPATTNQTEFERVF
T1 sequence (Q96SW2 whole entry, looked up): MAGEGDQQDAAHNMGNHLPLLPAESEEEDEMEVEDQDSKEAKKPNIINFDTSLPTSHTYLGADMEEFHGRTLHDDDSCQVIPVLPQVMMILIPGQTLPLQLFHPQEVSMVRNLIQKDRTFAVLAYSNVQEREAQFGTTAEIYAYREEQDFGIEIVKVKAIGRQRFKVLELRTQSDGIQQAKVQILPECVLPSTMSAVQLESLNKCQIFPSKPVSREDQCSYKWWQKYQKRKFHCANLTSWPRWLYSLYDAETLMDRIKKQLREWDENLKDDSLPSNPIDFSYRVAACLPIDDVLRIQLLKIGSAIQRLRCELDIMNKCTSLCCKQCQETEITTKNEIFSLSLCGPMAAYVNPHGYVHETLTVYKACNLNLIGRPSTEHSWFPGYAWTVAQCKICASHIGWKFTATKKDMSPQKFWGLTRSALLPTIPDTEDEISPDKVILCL

[2] = target: T1, Protein cereblon/Cyclin-dependent kinase 9; assay: In vivo PROTAC activity at CRBN/CDK9 in female BALB/c nude mouse xenografted with human NCI-H446 cells assessed as induction of CDK9 degradation in tumor at 25 mg/kg, po measured after 6 to 12 hrs by Western blot analysis; type: functional, organism-based; conditions: time 6-12 hrs
[3] = target: T1, Protein cereblon/Cyclin-dependent kinase 9; assay: PROTAC activity at CRBN/CDK9 in human NCI-H69 cells assessed as induction of CDK9 degradation by measuring reduction in half-life incubated upto 24 hrs in presence of cycloheximide by Western blot analysis; type: cell-based
[4] = target: T1, Protein cereblon/Cyclin-dependent kinase 9; assay: PROTAC activity at CRBN/CDK9 in human NCI-H69 cells assessed as induction of CDK9 degradation preincubated with MG132 for 2 hrs followed by compound addition and measured after 3 hrs by Western blot analysis; type: cell-based
NCI-H69 [5] = assay: Antiproliferative activity against human NCI-H69 cells assessed as reduction in cell viability incubated for 72 hrs in presence of thalidomide by celltiter-Glo assay; type: functional, cell-based
NCI-H446 [6] = assay: Antiproliferative activity against human NCI-H446 cells assessed as reduction in cell viability incubated for 72 hrs in presence of thalidomide by celltiter-Glo assay; type: functional, cell-based
[7] = target: T1, Protein cereblon/Cyclin-dependent kinase 9; assay: PROTAC activity at CRBN/CDK9 in human NCI-H69 cells assessed as increase in CDK9 ubiquitination preincubated with MG132 for 2 hrs followed by compound addition and measured after 3 hrs by co-immunoprecipitation analysis; type: cell-based
[8] = target: CDK12/Cyclin K (Homo sapiens) (UniProt O75909+Q9NYV4); assay: Inhibition of CDK12/Cyclin K (unknown origin) at 10 nM relative to control; type: protein-complex assay
Chain of CDK12/Cyclin K (Homo sapiens) (O75909 whole entry, looked up): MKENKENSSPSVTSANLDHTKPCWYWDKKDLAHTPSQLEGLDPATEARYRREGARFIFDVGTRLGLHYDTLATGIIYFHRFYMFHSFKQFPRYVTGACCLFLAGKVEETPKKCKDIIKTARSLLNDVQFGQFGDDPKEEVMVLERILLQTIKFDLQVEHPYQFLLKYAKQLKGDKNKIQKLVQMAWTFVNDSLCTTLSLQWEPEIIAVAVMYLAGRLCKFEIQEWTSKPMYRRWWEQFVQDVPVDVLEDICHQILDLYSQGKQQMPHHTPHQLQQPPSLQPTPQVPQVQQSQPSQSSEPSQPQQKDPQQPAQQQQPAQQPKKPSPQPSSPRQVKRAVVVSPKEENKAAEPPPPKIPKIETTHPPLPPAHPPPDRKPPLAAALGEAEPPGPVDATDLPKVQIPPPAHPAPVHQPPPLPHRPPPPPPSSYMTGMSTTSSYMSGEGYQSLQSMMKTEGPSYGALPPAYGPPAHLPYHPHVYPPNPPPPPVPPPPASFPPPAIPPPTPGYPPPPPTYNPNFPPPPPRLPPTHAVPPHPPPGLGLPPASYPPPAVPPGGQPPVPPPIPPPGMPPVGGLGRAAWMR
Chain of CDK12/Cyclin K (Homo sapiens) (Q9NYV4 whole entry, looked up): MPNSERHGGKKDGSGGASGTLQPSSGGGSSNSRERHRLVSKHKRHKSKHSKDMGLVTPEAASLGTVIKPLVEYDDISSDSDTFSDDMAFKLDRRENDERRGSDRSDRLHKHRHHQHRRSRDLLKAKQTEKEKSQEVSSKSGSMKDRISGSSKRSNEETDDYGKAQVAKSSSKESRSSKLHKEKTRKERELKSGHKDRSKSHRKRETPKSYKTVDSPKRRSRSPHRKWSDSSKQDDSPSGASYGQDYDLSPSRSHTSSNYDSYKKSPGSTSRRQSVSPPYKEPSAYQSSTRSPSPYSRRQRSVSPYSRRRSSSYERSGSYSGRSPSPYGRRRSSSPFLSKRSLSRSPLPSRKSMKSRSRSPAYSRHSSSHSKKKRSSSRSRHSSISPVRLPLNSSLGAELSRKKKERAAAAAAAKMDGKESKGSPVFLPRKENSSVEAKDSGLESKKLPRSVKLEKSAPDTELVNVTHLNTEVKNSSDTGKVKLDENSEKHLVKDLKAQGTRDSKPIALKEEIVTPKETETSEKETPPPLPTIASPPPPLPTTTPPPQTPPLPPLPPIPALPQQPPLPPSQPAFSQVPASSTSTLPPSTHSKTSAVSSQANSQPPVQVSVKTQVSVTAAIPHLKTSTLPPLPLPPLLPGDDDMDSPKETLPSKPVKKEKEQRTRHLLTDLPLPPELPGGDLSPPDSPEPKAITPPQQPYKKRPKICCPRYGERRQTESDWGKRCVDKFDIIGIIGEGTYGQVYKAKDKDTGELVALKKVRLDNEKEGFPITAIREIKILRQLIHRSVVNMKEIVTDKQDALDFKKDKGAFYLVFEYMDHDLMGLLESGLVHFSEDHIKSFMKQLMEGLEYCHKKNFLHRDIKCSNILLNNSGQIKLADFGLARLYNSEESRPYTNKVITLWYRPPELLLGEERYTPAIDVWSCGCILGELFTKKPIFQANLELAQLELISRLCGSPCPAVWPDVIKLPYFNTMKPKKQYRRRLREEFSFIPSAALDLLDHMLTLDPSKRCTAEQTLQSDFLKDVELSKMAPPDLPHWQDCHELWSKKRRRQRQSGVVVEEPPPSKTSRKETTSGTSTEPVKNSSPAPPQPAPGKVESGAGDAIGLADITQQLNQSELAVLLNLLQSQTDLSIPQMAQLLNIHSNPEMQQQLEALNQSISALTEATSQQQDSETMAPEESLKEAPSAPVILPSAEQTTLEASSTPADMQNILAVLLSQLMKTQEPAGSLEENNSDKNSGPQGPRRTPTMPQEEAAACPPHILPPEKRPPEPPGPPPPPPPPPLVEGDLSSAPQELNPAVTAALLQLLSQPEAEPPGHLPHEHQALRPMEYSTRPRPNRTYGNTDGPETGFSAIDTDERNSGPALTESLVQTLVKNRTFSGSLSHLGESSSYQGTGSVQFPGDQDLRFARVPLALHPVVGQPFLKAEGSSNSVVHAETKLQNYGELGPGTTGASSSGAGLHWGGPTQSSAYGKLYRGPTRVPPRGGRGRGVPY

[9] = target: Cyclin-dependent kinase 4/cyclin D1 (Homo sapiens) (UniProt P11802+P24385); assay: Inhibition of CDK4/cyclin D1 (unknown origin) at 10 nM relative to control; type: protein-complex assay
[10] = target: CDK3/Cyclin E (Homo sapiens) (UniProt P24864+Q00526); assay: Inhibition of CDK3/cyclin E1 (unknown origin) at 10 nM relative to control; type: protein-complex assay
Chain of CDK3/Cyclin E (Homo sapiens) (P24864 whole entry, looked up): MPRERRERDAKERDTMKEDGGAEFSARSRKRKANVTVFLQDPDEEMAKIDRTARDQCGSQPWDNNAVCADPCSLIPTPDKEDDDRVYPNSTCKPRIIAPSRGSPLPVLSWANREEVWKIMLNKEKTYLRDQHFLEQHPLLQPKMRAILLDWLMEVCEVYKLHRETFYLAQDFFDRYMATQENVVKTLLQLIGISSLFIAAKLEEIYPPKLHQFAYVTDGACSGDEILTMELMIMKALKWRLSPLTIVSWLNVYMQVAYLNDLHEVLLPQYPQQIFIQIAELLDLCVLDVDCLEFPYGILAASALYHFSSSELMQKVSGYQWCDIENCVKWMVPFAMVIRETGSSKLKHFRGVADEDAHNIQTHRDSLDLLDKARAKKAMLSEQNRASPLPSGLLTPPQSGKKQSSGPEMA
Chain of CDK3/Cyclin E (Homo sapiens) (Q00526 whole entry, looked up): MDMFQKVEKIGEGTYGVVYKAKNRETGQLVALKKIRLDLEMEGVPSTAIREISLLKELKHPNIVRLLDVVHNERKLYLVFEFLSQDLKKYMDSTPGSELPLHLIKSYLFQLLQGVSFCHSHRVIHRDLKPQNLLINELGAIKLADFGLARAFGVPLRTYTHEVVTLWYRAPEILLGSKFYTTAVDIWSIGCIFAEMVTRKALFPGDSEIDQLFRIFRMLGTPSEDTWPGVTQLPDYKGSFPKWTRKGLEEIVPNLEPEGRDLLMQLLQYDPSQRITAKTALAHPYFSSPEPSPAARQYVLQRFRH

[11] = target: Cyclin-dependent kinase 9 (Homo sapiens) (UniProt P50750); assay: Inhibition of CDK9-related signaling in human NCI-H69 cells assessed as decrease in RNA polymerase II phosphorylation at Ser2 residue at 0.5 to 10 nM incubated for 24 hrs by Western blot analysis; type: cell-based; conditions: dose 0.5-10 nM
Chain of Cyclin-dependent kinase 9 (Homo sapiens) (P50750 whole entry): as the sequence (P50750 whole entry, looked up) above

NCI-H69 [12] = assay: Inhibition of colony formation in human NCI-H69 cells at 2 to 4 nM incubated for 8 days by crystal violet staining based analysis; type: functional, cell-based; conditions: dose 2-4 nM, time 8.0 day
NCI-H446 [13] = assay: Inhibition of colony formation in human NCI-H446 cells at 2 to 4 nM incubated for 8 days by crystal violet staining based analysis; type: functional, cell-based; conditions: dose 2-4 nM, time 8.0 day
NCI-H69 [14] = assay: Cell cycle arrest in human NCI-H69 cells assessed as increase in G1 phase population incubated for 36 hrs by PI staining based flow cytometric analysis; type: functional; conditions: dose 0.5-4 nM
NCI-H69 [15] = assay: Induction of apoptosis in human NCI-H69 cells at 1 nM by microscopic analysis; type: functional, cell-based
NCI-H69 [16] = assay: Induction of apoptosis in human NCI-H69 cells incubated for 36 hrs by Annexin V-FITC/PI staining based flow cytometric analysis; type: functional, cell-based; conditions: dose 1-8 nM
NCI-H69 [17] = assay: Induction of apoptosis in human NCI-H69 cells assessed as increase in cleaved PARP level incubated for 36 hrs by Western blot analysis; type: functional, cell-based
NCI-H69 [18] = assay: Induction of apoptosis in human NCI-H69 cells assessed as increase in cleaved caspase-3 level incubated for 36 hrs by Western blot analysis; type: functional, cell-based
[19] = target: T1, Protein cereblon/Cyclin-dependent kinase 9; assay: In vivo PROTAC activity at CRBN/CDK9 in female NU/NU mouse model xenografted with human NCI-H446 cells assessed as decrease in CDK9 expression in tumor at 12.5 to 25 mg/kg, po administered once daily for 15 days by immunohistochemical staining based analysis; type: functional, organism-based; conditions: dose 12.5-25 mg/kg, time 15.0 day
NCI-H446 [20] = assay: Antitumor activity against human NCI-H446 cells expressing luciferase-GFP xenografted in female NU-NU mouse model assessed as decrease in systemic metastasis at 12.5 to 25 mg/kg, po administered for 19 days; type: functional, organism-based; conditions: dose 12.5-25 mg/kg, time 19.0 day
NCI-H446 [21] = assay: Antitumor activity against human NCI-H446 cells expressing luciferase-GFP xenografted in female NU-NU mouse model assessed as decrease in tumor burden at 12.5 to 25 mg/kg, po administered for 19 days; type: functional, organism-based; conditions: dose 12.5-25 mg/kg, time 19.0 day
[22] = tested on: Small cell lung cancer cell line; assay: Antitumor activity against LDI-0060-200770 patient derived Small cell lung cancer cell line xenografted in BALB/c nude mouse assessed as reduction in tumor growth at 25 mg/kg, po administered once daily for 7 days; type: functional, organism-based; conditions: Homo sapiens, time 7.0 day
[23] = tested on: Small cell lung cancer cell line; assay: Antitumor activity against LDI-0025-362145 patient derived Small cell lung cancer cell line xenografted in BALB/c nude mouse assessed as reduction in tumor growth at 25 mg/kg, po administered once daily for 7 days; type: functional, organism-based; conditions: Homo sapiens, time 7.0 day
[24] = tested on: Small cell lung cancer cell line; assay: Antitumor activity against LDI-2025-362195 patient derived Small cell lung cancer cell line xenografted in BALB/c nude mouse assessed as reduction in tumor growth at 25 mg/kg, po administered once daily for 7 days; type: functional, organism-based; conditions: Homo sapiens, time 7.0 day

- Activity [1]: 93.4%
- Activity [2]: Active
- Activity [3]: Active
- Activity [4]: inactive
- Activity [7]: Active
- inhibition [8]: 38%
- inhibition [9]: 37%
- inhibition [10]: 31%
- inhibition [11]: Active
- Activity [19]: Active
Compound: O=C1CCC(Nc2cccc(N3CCN(CC4CCN(CC(=O)N5CCC(NC(=O)c6n[nH]cc6NC(=O)c6c(Cl)cccc6Cl)CC5)CC4)CC3)c2)C(=O)N1 (centres undefined)
- Activity (NCI-H69 [5]): inactive
- Activity (NCI-H446 [6]): inactive
- inhibition (NCI-H69 [12]): Active
- inhibition (NCI-H446 [13]): Active
- Activity (NCI-H69 [14]): Dose-dependent-effect
- Activity (NCI-H69 [15]): Active
- Activity (NCI-H69 [16]): Dose-dependent-effect
- Activity (NCI-H69 [17]): Dose-dependent-effect
- Activity (NCI-H69 [18]): Dose-dependent-effect
- Activity (NCI-H446 [20]): Active
- Activity (NCI-H446 [21]): Active
- Activity [22]: Active
- Activity [23]: Active
- Activity [24]: Active
